Eight molecules from patent publication US10131652B2, “Pyrimidinyloxy benzene derivatives as herbicides” (E. I. DU PONT DE NEMOURS AND COMPANY, priority 2014, dated 2018) can be followed below.

Type in all cases: in vivo
Assay [1] has as its system barnyardgrass (Echinochloa crus-galli). In words: Test C flooded paddy test plant response. Particulars: Echinochloa crus-galli; Flood, 250 g ai/ha; scale of 0 to 100 where 0 is no effect and 100 is complete control; 13 to 15 days; read-out: Barnyardgrass plant response rating. In outline: (§1)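 Plants grown to the 2-leaf stage; pots flooded to 3 cm above soil, test compounds applied directly to paddy water, depth maintained throughout. Greenhouse for 13 to 15 days, then visual rating versus controls on a 0–100 scale (0 no effect, 100 complete control).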

For assay [2], the system named is ducksalad (Heteranthera limosa). The assay can be described thus: Test C flooded paddy test plant response. Particulars: Heteranthera limosa; Flood, 250 g ai/ha; scale of 0 to 100 where 0 is no effect and 100 is complete control; 13 to 15 days; read-out: Ducksalad plant response rating. In outline: as §1
The test system of assay [3] is rice (Oryza sativa). The assay can be described thus: Test C flooded paddy test plant response. The conditions noted are these: Oryza sativa; Flood, 250 g ai/ha; scale of 0 to 100 where 0 is no effect and 100 is complete control; 13 to 15 days; read-out: Rice plant response rating. In a few lines: as §1
Assay [4] has as its system small-flower umbrella sedge (Cyperus difformis). In words: Test C flooded paddy test plant response. Particulars: Cyperus difformis; Flood, 250 g ai/ha; scale of 0 to 100 where 0 is no effect and 100 is complete control; 13 to 15 days; read-out: Sedge, Umbrella plant response rating. In a few lines: as §1
Assay [5] relates to johnsongrass (Sorghum halepense). The assay can be described thus: Test D pre-/postemergence plant response. The conditions noted are these: Sorghum halepense, pre-emergence, Preemergence, scale 0 to 100 (0 no effect, 100 complete control), read-out: Plant response rating, Johnsongrass. In a few lines: (§2)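 Seeds sown in loam–sand blend got preemergence sprays of test chemicals in a non-phytotoxic solvent with surfactant; postemergence sprays went on plants at 1- to 4-leaf stage (2 to 18 cm) in peat/vermiculite medium. After 13 to 15 days in greenhouse, visual injury versus controls scored 0 (no effect) to 100 (complete control).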

Assay [6] relates to large (Lg) crabgrass (Digitaria sanguinalis). In words: Test D pre-/postemergence plant response. The conditions noted are these: Digitaria sanguinalis, pre-emergence, Preemergence, scale 0 to 100 (0 no effect, 100 complete control), read-out: Plant response rating, Crabgrass, Large. In a few lines: as §2
Assay [7] has as its system oilseed rape (Brassica napus). In words: Test D pre-/postemergence plant response. The conditions noted are these: Brassica napus, pre-emergence, Preemergence, scale 0 to 100 (0 no effect, 100 complete control), read-out: Plant response rating, Oilseed Rape. In outline:
as §2

The subject of assay [8] is soybean (Glycine max). In words: Test D pre-/postemergence plant response. The conditions noted are these: Glycine max, pre-emergence, Preemergence, scale 0 to 100 (0 no effect, 100 complete control), read-out: Plant response rating, Soybean. In outline: as §2
Assay [9] has as its system velvetleaf (Abutilon theophrasti). In words: Test D pre-/postemergence plant response. Particulars: Abutilon theophrasti, pre-emergence, Preemergence, scale 0 to 100 (0 no effect, 100 complete control), read-out: Plant response rating, Velvetleaf. In a few lines: as §2
Assay [10] relates to winter wheat (Triticum aestivum). In words: Test D pre-/postemergence plant response. Particulars: Triticum aestivum, pre-emergence, Preemergence, scale 0 to 100 (0 no effect, 100 complete control), read-out: Plant response rating, Wheat. In a few lines:
as §2

Assay [11] deals with yellow nutsedge (Cyperus esculentus). The assay can be described thus: Test D pre-/postemergence plant response. Particulars: Cyperus, pre-emergence, Preemergence, scale 0 to 100 (0 no effect, 100 complete control), read-out: Plant response rating, Nutsedge, Yellow. In outline: as §2

Consider `FC(F)(F)Oc1ccc(-c2ccccc2Oc2ncc(Cl)cn2)cc1` [Compound 42, 5-chloro-2-[[4′-(trifluoromethoxy)[1,1′-biphenyl]-2-yl]oxy]pyrimidine], for which the pest or weed control at 250 g/ha in assay [1], in assay [2] and in assay [4] was 0% throughout. In [3], the plant injury at 250 g/ha came out at 0%.
On to `Clc1ccc(-c2c(Cl)cccc2Oc2ncc(Cl)cn2)nc1` [Compound 23, 5-chloro-2-[3-chloro-2-(5-chloro-2-pyridinyl)phenoxy]pyrimidine], for which the pest or weed control at 250 g/ha in assay [1] is 0%; in [2], 60%; in [4], 40%. Also, in assay [3], the plant injury at 250 g/ha came to 0%.
As for `FC(F)(F)c1nccc(-c2ccccc2Oc2ncc(Br)cn2)n1` [Compound 21, 4-[2-[(5-bromo-2-pyrimidinyl)oxy]phenyl]-2-(trifluoromethyl)pyrimidine], the pest or weed control at 250 g/ha in [1], in assay [2] and in assay [4] was 0% each time. The plant injury at 250 g/ha in assay [3] is 0%.
Turning to `FCc1cc(-c2ccccc2Oc2ncc(Cl)cn2)no1` [Compound 32, 5-chloro-2-[2-[5-(fluoromethyl)-3-isoxazolyl]phenoxy]pyrimidine], the values for the pest or weed control at 250 g/ha in assay [1], in [2] and in assay [4] were 0%, 90% and 85%, respectively. In [3], the plant injury at 250 g/ha is 20%. Moreover, the pest or weed control at 8 g/ha in assay [5] (8 g ai/ha) was determined as 0%; in assay [6] (8 g ai/ha), 100%; in [9] (8 g ai/ha) it was 5%; in [11] (8 g ai/ha) it was 60%. The pest or weed control at 16 g/ha in [5] (16 g ai/ha) came to 45%; in assay [6] (16 g ai/ha), 90%; in assay [9] (16 g ai/ha), 40%; in assay [11] (16 g ai/ha), 65%. For the same molecule, the pest or weed control at 31 g/ha worked out at 75% in assay [5] (31 g ai/ha), 98% in [6] (31 g ai/ha), 55% in assay [9] (31 g ai/ha) and 0% in assay [11] (31 g ai/ha). Further, the pest or weed control at 62 g/ha in assay [5] (62 g ai/ha) was 85%; in assay [6] (62 g ai/ha), 100%; in [9] (62 g ai/ha), 85%; in [11] (62 g ai/ha), 25%. Further, the results for the plant injury at 8 g/ha in assay [7] (8 g ai/ha), in [8] (8 g ai/ha) and in assay [10] (8 g ai/ha) were 50%, 10% and 0%, respectively. Further, the plant injury at 16 g/ha in [7] (16 g ai/ha) amounted to 80%; in assay [8] (16 g ai/ha) it was 15%; in [10] (16 g ai/ha), 0%. In addition, the values for the plant injury at 31 g/ha in assay [7] (31 g ai/ha), in [8] (31 g ai/ha) and in [10] (31 g ai/ha) were 100%, 25% and 0%, respectively. In addition, the plant injury at 62 g/ha in assay [7] (62 g ai/ha) was determined as 100%; in assay [8] (62 g ai/ha), 65%; in [10] (62 g ai/ha), 5%.
For `FC(F)(F)c1ccnc(-c2ccccc2Oc2ncc(Cl)cn2)c1` [Compound 25, 5-chloro-2-[2-[4-(trifluoromethyl)-2-pyridinyl]phenoxy]pyrimidine], the results for the pest or weed control at 250 g/ha in assay [1], in assay [2] and in assay [4] were 0%, 30% and 20%, respectively. Further, the plant injury at 250 g/ha in assay [3] was 0%.
As for `Cc1ccc(Oc2ncc(Cl)cn2)c(-c2ccnc(C(F)(F)F)c2)c1` [Compound 24, 5-chloro-2-[4-methyl-2-[2-(trifluoromethyl)-4-pyridinyl]phenoxy]pyrimidine], the pest or weed control at 250 g/ha in assay [1] was 0%; in assay [2] it was 0%; in assay [4], 40%. Besides, the plant injury at 250 g/ha in assay [3] was determined as 0%.
As to `Cc1ccc(Oc2ncc(Cl)cn2)c(-c2ccc(C(F)(F)F)nc2)c1` [Compound 22, 5-chloro-2-[4-methyl-2-[6-(trifluoromethyl)-3-pyridinyl]phenoxy]pyrimidine], the pest or weed control at 250 g/ha in assay [1], in [2] and in assay [4] was 0% each time. Also, the plant injury at 250 g/ha in assay [3] was determined as 0%.
As to `FC(F)(F)c1ccc(-c2ccccc2Oc2ncc(Cl)cn2)nc1` [Compound 27, 5-chloro-2-[2-[5-(trifluoromethyl)-2-pyridinyl]phenoxy]pyrimidine], the values for the pest or weed control at 250 g/ha in assay [1], in assay [2] and in [4] were 0%, 30% and 40%, respectively. In assay [3], the plant injury at 250 g/ha stood at 0%.
